{
  "source": "the supplement of paper PMC10307832",
  "assay_in_all_cases": "relative viability (nuclei count vs DMSO), 5 days (fraction); higher = more cells survive",
  "key": {"PC-3 [JPC-3]": {"test_system": "PC-3 [JPC-3]", "outline": "(§1)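 Five library-drug doses in √10 steps were combined with a fixed anchor-drug dose, or a single drug was given alone, by pin tool to lung cancer cell lines in 1536-well plates the day after seeding. Nuclei were stained and counted after 5 days. Relative viability is the nuclei count in treated wells over that in vehicle wells, taken as the median of duplicate plates.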"}, "LK-2": {"test_system": "LK-2", "outline": "as §1"}, "RERF-LC-KJ": {"test_system": "RERF-LC-KJ", "outline": "as §1"}, "EMC-BAC-2": {"test_system": "EMC-BAC-2", "outline": "as §1"}, "HOP-62": {"test_system": "HOP-62", "outline": "as §1"}, "ABC-1": {"test_system": "ABC-1", "outline": "as §1"}, "NCI-H727": {"test_system": "NCI-H727", "outline": "as §1"}, "NCI-H3122": {"test_system": "NCI-H3122", "outline": "as §1"}, "NCI-H596": {"test_system": "NCI-H596", "outline": "as §1"}, "CAL-12T": {"test_system": "CAL-12T", "outline": "as §1"}, "NCI-H1651": {"test_system": "NCI-H1651", "outline": "as §1"}, "HARA": {"test_system": "HARA", "outline": "as §1"}, "NCI-H441": {"test_system": "NCI-H441", "outline": "as §1"}, "NCI-H1755": {"test_system": "NCI-H1755", "outline": "as §1"}, "NCI-H1437": {"test_system": "NCI-H1437", "outline": "as §1"}, "HCC-366": {"test_system": "HCC-366", "outline": "as §1"}, "NCI-H1734": {"test_system": "NCI-H1734", "outline": "as §1"}, "NCI-H2347": {"test_system": "NCI-H2347", "outline": "as §1"}},
  "data": [
    {"smiles": "CCNC(=O)c1noc(-c2cc(C(C)C)c(O)cc2O)c1-c1ccc(CN2CCOCC2)cc1", "note": "[Luminespib] + NC(=O)Nc1cc(-c2cccc(F)c2)sc1C(=O)N[C@H]1CCCNC1 [AZD7762] (partner 0.2 µM)", "values": [
      {"measurement": "relative viability", "setting": "PC-3 [JPC-3]; first compound 0.002 µM", "result": 0.747},
      {"measurement": "relative viability", "setting": "PC-3 [JPC-3]; first compound 0.006325 µM", "result": 0.86},
      {"measurement": "relative viability", "setting": "PC-3 [JPC-3]; first compound 0.02 µM", "result": 0.492},
      {"measurement": "relative viability", "setting": "PC-3 [JPC-3]; first compound 0.06325 µM", "result": 0.319},
      {"measurement": "relative viability", "setting": "PC-3 [JPC-3]; first compound 0.2 µM", "result": 0.337},
      {"measurement": "relative viability", "setting": "LK-2; first compound 0.002 µM", "result": 0.37},
      {"measurement": "relative viability", "setting": "LK-2; first compound 0.006325 µM", "result": 0.481},
      {"measurement": "relative viability", "setting": "LK-2; first compound 0.02 µM", "result": 0.278},
      {"measurement": "relative viability", "setting": "LK-2; first compound 0.06325 µM", "result": 0.0715},
      {"measurement": "relative viability", "setting": "LK-2; first compound 0.2 µM", "result": 0.0593},
      {"measurement": "relative viability", "setting": "RERF-LC-KJ; first compound 0.002 µM", "result": 0.936},
      {"measurement": "relative viability", "setting": "RERF-LC-KJ; first compound 0.006325 µM", "result": 0.998},
      {"measurement": "relative viability", "setting": "RERF-LC-KJ; first compound 0.02 µM", "result": 0.683},
      {"measurement": "relative viability", "setting": "RERF-LC-KJ; first compound 0.06325 µM", "result": 0.533},
      {"measurement": "relative viability", "setting": "RERF-LC-KJ; first compound 0.2 µM", "result": 0.178},
      {"measurement": "relative viability", "setting": "EMC-BAC-2; first compound 0.002 µM", "result": 1.12},
      {"measurement": "relative viability", "setting": "EMC-BAC-2; first compound 0.006325 µM", "result": 0.655},
      {"measurement": "relative viability", "setting": "EMC-BAC-2; first compound 0.02 µM", "result": 0.689},
      {"measurement": "relative viability", "setting": "EMC-BAC-2; first compound 0.06325 µM", "result": 0.769},
      {"measurement": "relative viability", "setting": "EMC-BAC-2; first compound 0.2 µM", "result": 0.226},
      {"measurement": "relative viability", "setting": "HOP-62; first compound 0.002 µM", "result": 0.437},
      {"measurement": "relative viability", "setting": "HOP-62; first compound 0.006325 µM", "result": 0.463},
      {"measurement": "relative viability", "setting": "HOP-62; first compound 0.02 µM", "result": 0.306},
      {"measurement": "relative viability", "setting": "HOP-62; first compound 0.06325 µM", "result": 0.129},
      {"measurement": "relative viability", "setting": "HOP-62; first compound 0.2 µM", "result": 0.109},
      {"measurement": "relative viability", "setting": "ABC-1; first compound 0.002 µM", "result": 0.822},
      {"measurement": "relative viability", "setting": "ABC-1; first compound 0.006325 µM", "result": 0.737},
      {"measurement": "relative viability", "setting": "ABC-1; first compound 0.02 µM", "result": 0.715},
      {"measurement": "relative viability", "setting": "ABC-1; first compound 0.06325 µM", "result": 0.248},
      {"measurement": "relative viability", "setting": "ABC-1; first compound 0.2 µM", "result": 0.212},
      {"measurement": "relative viability", "setting": "NCI-H727; first compound 0.002 µM", "result": 0.53},
      {"measurement": "relative viability", "setting": "NCI-H727; first compound 0.006325 µM", "result": 0.493},
      {"measurement": "relative viability", "setting": "NCI-H727; first compound 0.02 µM", "result": 0.57},
      {"measurement": "relative viability", "setting": "NCI-H727; first compound 0.06325 µM", "result": 0.36},
      {"measurement": "relative viability", "setting": "NCI-H727; first compound 0.2 µM", "result": 0.323},
      {"measurement": "relative viability", "setting": "NCI-H3122; first compound 0.002 µM", "result": 0.948},
      {"measurement": "relative viability", "setting": "NCI-H3122; first compound 0.006325 µM", "result": 0.942},
      {"measurement": "relative viability", "setting": "NCI-H3122; first compound 0.02 µM", "result": 0.626},
      {"measurement": "relative viability", "setting": "NCI-H3122; first compound 0.06325 µM", "result": 0.109},
      {"measurement": "relative viability", "setting": "NCI-H3122; first compound 0.2 µM", "result": 0.0654},
      {"measurement": "relative viability", "setting": "NCI-H596; first compound 0.002 µM", "result": 1.11},
      {"measurement": "relative viability", "setting": "NCI-H596; first compound 0.006325 µM", "result": 1.17},
      {"measurement": "relative viability", "setting": "NCI-H596; first compound 0.02 µM", "result": 0.857},
      {"measurement": "relative viability", "setting": "NCI-H596; first compound 0.06325 µM", "result": 0.934},
      {"measurement": "relative viability", "setting": "NCI-H596; first compound 0.2 µM", "result": 0.879},
      {"measurement": "relative viability", "setting": "CAL-12T; first compound 0.002 µM", "result": 0.698},
      {"measurement": "relative viability", "setting": "CAL-12T; first compound 0.006325 µM", "result": 0.691},
      {"measurement": "relative viability", "setting": "CAL-12T; first compound 0.02 µM", "result": 0.542},
      {"measurement": "relative viability", "setting": "CAL-12T; first compound 0.06325 µM", "result": 0.188},
      {"measurement": "relative viability", "setting": "CAL-12T; first compound 0.2 µM", "result": 0.182},
      {"measurement": "relative viability", "setting": "NCI-H1651; first compound 0.002 µM", "result": 0.445},
      {"measurement": "relative viability", "setting": "NCI-H1651; first compound 0.006325 µM", "result": 0.441},
      {"measurement": "relative viability", "setting": "NCI-H1651; first compound 0.02 µM", "result": 0.277},
      {"measurement": "relative viability", "setting": "NCI-H1651; first compound 0.06325 µM", "result": 0.446},
      {"measurement": "relative viability", "setting": "NCI-H1651; first compound 0.2 µM", "result": 0.181},
      {"measurement": "relative viability", "setting": "HARA; first compound 0.002 µM", "result": 0.304},
      {"measurement": "relative viability", "setting": "HARA; first compound 0.006325 µM", "result": 0.291},
      {"measurement": "relative viability", "setting": "HARA; first compound 0.02 µM", "result": 0.511},
      {"measurement": "relative viability", "setting": "HARA; first compound 0.06325 µM", "result": 0.18},
      {"measurement": "relative viability", "setting": "HARA; first compound 0.2 µM", "result": 0.125},
      {"measurement": "relative viability", "setting": "NCI-H441; first compound 0.002 µM", "result": 1.08},
      {"measurement": "relative viability", "setting": "NCI-H441; first compound 0.006325 µM", "result": 1.05},
      {"measurement": "relative viability", "setting": "NCI-H441; first compound 0.02 µM", "result": 1.18},
      {"measurement": "relative viability", "setting": "NCI-H441; first compound 0.06325 µM", "result": 0.308},
      {"measurement": "relative viability", "setting": "NCI-H441; first compound 0.2 µM", "result": 0.126},
      {"measurement": "relative viability", "setting": "NCI-H1755; first compound 0.002 µM", "result": 0.429},
      {"measurement": "relative viability", "setting": "NCI-H1755; first compound 0.006325 µM", "result": 0.355},
      {"measurement": "relative viability", "setting": "NCI-H1755; first compound 0.02 µM", "result": 0.352},
      {"measurement": "relative viability", "setting": "NCI-H1755; first compound 0.06325 µM", "result": 0.245},
      {"measurement": "relative viability", "setting": "NCI-H1755; first compound 0.2 µM", "result": 0.161},
      {"measurement": "relative viability", "setting": "NCI-H1437; first compound 0.002 µM", "result": 1.11},
      {"measurement": "relative viability", "setting": "NCI-H1437; first compound 0.006325 µM", "result": 1.04},
      {"measurement": "relative viability", "setting": "NCI-H1437; first compound 0.02 µM", "result": 1.15},
      {"measurement": "relative viability", "setting": "NCI-H1437; first compound 0.06325 µM", "result": 0.785},
      {"measurement": "relative viability", "setting": "NCI-H1437; first compound 0.2 µM", "result": 0.278},
      {"measurement": "relative viability", "setting": "HCC-366; first compound 0.002 µM", "result": 0.392},
      {"measurement": "relative viability", "setting": "HCC-366; first compound 0.006325 µM", "result": 0.302},
      {"measurement": "relative viability", "setting": "HCC-366; first compound 0.02 µM", "result": 0.331},
      {"measurement": "relative viability", "setting": "HCC-366; first compound 0.06325 µM", "result": 0.0393},
      {"measurement": "relative viability", "setting": "HCC-366; first compound 0.2 µM", "result": 0.0222},
      {"measurement": "relative viability", "setting": "NCI-H1734; first compound 0.002 µM", "result": 0.516},
      {"measurement": "relative viability", "setting": "NCI-H1734; first compound 0.006325 µM", "result": 0.497},
      {"measurement": "relative viability", "setting": "NCI-H1734; first compound 0.02 µM", "result": 0.28},
      {"measurement": "relative viability", "setting": "NCI-H1734; first compound 0.06325 µM", "result": 0.0991},
      {"measurement": "relative viability", "setting": "NCI-H1734; first compound 0.2 µM", "result": 0.124},
      {"measurement": "relative viability", "setting": "NCI-H2347; first compound 0.002 µM", "result": 0.844},
      {"measurement": "relative viability", "setting": "NCI-H2347; first compound 0.006325 µM", "result": 0.719},
      {"measurement": "relative viability", "setting": "NCI-H2347; first compound 0.02 µM", "result": 0.614},
      {"measurement": "relative viability", "setting": "NCI-H2347; first compound 0.06325 µM", "result": 0.469},
      {"measurement": "relative viability", "setting": "NCI-H2347; first compound 0.2 µM", "result": 0.202}
    ]}
  ]
}
